In ChEMBL document CHEMBL4837183, “Antiproliferative Bufadienolides from the Bulbs of Drimia altissima” (2021):

Assays:
Type in all cases: functional
[1] = system: UACC-62; experiment: Growth inhibition of human UACC-62 cells measured after 48 hrs by SRB assay
[2] = system: PC-3; experiment: Growth inhibition of human PC-3 cells measured after 48 hrs by SRB assay
[3] = system: A549; experiment: Growth inhibition of human A549 cells measured after 48 hrs by SRB assay
[4] = system: SK-MEL-2; experiment: Growth inhibition of human SK-MEL-2 cells measured after 48 hrs by SRB assay
[5] = system: SR; experiment: Growth inhibition of human SR cells measured after 48 hrs by SRB assay
[6] = system: SF-539; experiment: Growth inhibition of human SF-539 cells measured after 48 hrs by SRB assay
[7] = system: NCI/ADR-RES; experiment: Growth inhibition of human NCI/ADR-RES cells measured after 48 hrs by SRB assay
[8] = system: SF-268; experiment: Growth inhibition of human SF-268 cells measured after 48 hrs by SRB assay
[9] = system: MDA-MB-435; experiment: Growth inhibition of human MDA-MB-435 cells measured after 48 hrs by SRB assay
[10] = system: RXF 393; experiment: Growth inhibition of human RXF 393 cells measured after 48 hrs by SRB assay
[11] = system: NCI-H522; experiment: Growth inhibition of human NCI-H522 cells measured after 48 hrs by SRB assay
[12] = system: BT-549; experiment: Growth inhibition of human BT-549 cells measured after 48 hrs by SRB assay
[13] = system: NCI-H322M; experiment: Growth inhibition of human NCI-H322M cells measured after 48 hrs by SRB assay
[14] = system: SK-MEL-28; experiment: Growth inhibition of human SK-MEL-28 cells measured after 48 hrs by SRB assay
[15] = system: SF-295; experiment: Growth inhibition of human SF-295 cells measured after 48 hrs by SRB assay
[16] = system: K562; experiment: Growth inhibition of human K562 cells measured after 48 hrs by SRB assay
[17] = system: UACC-257; experiment: Growth inhibition of human UACC-257 cells measured after 48 hrs by SRB assay
[18] = system: OVCAR-3; experiment: Growth inhibition of human OVCAR-3 cells measured after 48 hrs by SRB assay
[19] = system: IGROV-1; experiment: Growth inhibition of human IGROV-1 cells measured after 48 hrs by SRB assay
[20] = system: HCT-116; experiment: Growth inhibition of human HCT-116 cells measured after 48 hrs by SRB assay
[21] = system: KM12; experiment: Growth inhibition of human KM12 cells measured after 48 hrs by SRB assay
[22] = system: MOLT-4; experiment: Growth inhibition of human MOLT-4 cells measured after 48 hrs by SRB assay
[23] = system: NCI-H460; experiment: Growth inhibition of human NCI-H460 cells measured after 48 hrs by SRB assay
[24] = system: Malme-3M; experiment: Growth inhibition of human Malme-3M cells measured after 48 hrs by SRB assay
[25] = system: ACHN; experiment: Growth inhibition of human ACHN cells measured after 48 hrs by SRB assay
[26] = system: HOP-92; experiment: Growth inhibition of human HOP-92 cells measured after 48 hrs by SRB assay
[27] = system: HOP-62; experiment: Growth inhibition of human HOP-62 cells measured after 48 hrs by SRB assay
[28] = system: Hs-578T; experiment: Growth inhibition of human Hs-578T cells measured after 48 hrs by SRB assay
[29] = system: NCI-H23; experiment: Growth inhibition of human NCI-H23 cells measured after 48 hrs by SRB assay
[30] = system: HL-60; experiment: Growth inhibition of human HL-60 cells measured after 48 hrs by SRB assay
[31] = system: SNB-75; experiment: Growth inhibition of human SNB-75 cells measured after 48 hrs by SRB assay
[32] = system: M14; experiment: Growth inhibition of human M14 cells measured after 48 hrs by SRB assay
[33] = system: SK-OV-3; experiment: Growth inhibition of human SK-OV-3 cells measured after 48 hrs by SRB assay
[34] = system: MDA-MB-231; experiment: Growth inhibition of human MDA-MB-231 cells measured after 48 hrs by SRB assay
[35] = system: TK-10; experiment: Growth inhibition of human TK-10 cells measured after 48 hrs by SRB assay
[36] = system: 786-0; experiment: Growth inhibition of human 786-0 cells measured after 48 hrs by SRB assay
[37] = system: COLO 205; experiment: Growth inhibition of human COLO 205 cells measured after 48 hrs by SRB assay
[38] = system: SN12C; experiment: Growth inhibition of human SN12C cells measured after 48 hrs by SRB assay
[39] = system: MCF7; experiment: Growth inhibition of human MCF7 cells measured after 48 hrs by SRB assay
[40] = system: RPMI-8226; experiment: Growth inhibition of human RPMI-8226 cells measured after 48 hrs by SRB assay
[41] = system: HCC 2998; experiment: Growth inhibition of human HCC 2998 cells measured after 48 hrs by SRB assay
[42] = system: NCI-H226; experiment: Growth inhibition of human NCI-H226 cells measured after 48 hrs by SRB assay
[43] = system: MDA-MB-468; experiment: Growth inhibition of human MDA-MB-468 cells measured after 48 hrs by SRB assay
[44] = system: SW-620; experiment: Growth inhibition of human SW-620 cells measured after 48 hrs by SRB assay
[45] = system: T47D; experiment: Growth inhibition of human T47D cells measured after 48 hrs by SRB assay
[46] = system: CCRF-CEM; experiment: Growth inhibition of human CCRF-CEM cells measured after 48 hrs by SRB assay
[47] = system: OVCAR-8; experiment: Growth inhibition of human OVCAR-8 cells measured after 48 hrs by SRB assay
[48] = system: CAKI-1; experiment: Growth inhibition of human CAKI-1 cells measured after 48 hrs by SRB assay
[49] = system: OVCAR-5; experiment: Growth inhibition of human OVCAR-5 cells measured after 48 hrs by SRB assay
[50] = system: HCT-15; experiment: Growth inhibition of human HCT-15 cells measured after 48 hrs by SRB assay
[51] = system: LOX IMVI; experiment: Growth inhibition of human LOX IMVI cells measured after 48 hrs by SRB assay
[52] = system: UO-31; experiment: Growth inhibition of human UO-31 cells measured after 48 hrs by SRB assay
[53] = system: SK-MEL-5; experiment: Growth inhibition of human SK-MEL-5 cells measured after 48 hrs by SRB assay
[54] = system: DU-145; experiment: Growth inhibition of human DU-145 cells measured after 48 hrs by SRB assay
[55] = system: SNB-19; experiment: Growth inhibition of human SNB-19 cells measured after 48 hrs by SRB assay
[56] = system: A498; experiment: Growth inhibition of human A498 cells measured after 48 hrs by SRB assay

Molecule `CCO[C@H]1C=C2CC[C@@H]3[C@H]([C@@H](O)C[C@]4(C)[C@@H](c5ccc(=O)oc5)CC[C@]34O)[C@@]2(C)CC1` has a GI50 [1] of 1270 nM, a GI50 [2] of 839 nM and a GI50 [3] of 434 nM. The GI50 [4] was 1200 nM, the GI50 [5] was 418 nM and the GI50 [6] was 968 nM. It also gave a GI50 [7] of 1610 nM, a GI50 [8] of 471 nM and a GI50 [9] of 1400 nM. The GI50 [10] was 709 nM, the GI50 [11] was 252 nM and the GI50 [12] was 946 nM. It also gave a GI50 [13] of 1400 nM, a GI50 [14] of 1660 nM and a GI50 [15] of 1200 nM. It also gave a GI50 [16] of 1270 nM, a GI50 [17] of 1890 nM and a GI50 [18] of 618 nM. For the same molecule, the GI50 [19] was 1840 nM, the GI50 [20] was 716 nM and the GI50 [21] was 2200 nM. For the same molecule, the GI50 [22] was 189 nM, the GI50 [23] was 247 nM and the GI50 [24] was 1800 nM. For the same molecule, the GI50 [25] was 251 nM, the GI50 [26] was 757 nM and the GI50 [27] was 974 nM. The GI50 [28] was 369 nM, the GI50 [29] was 1360 nM and the GI50 [30] was 649 nM. It also gave a GI50 [31] of 1060 nM, a GI50 [32] of 1930 nM and a GI50 [33] of 1910 nM. For the same molecule, the GI50 [34] was > 5750 nM, the GI50 [35] was 1300 nM and the GI50 [36] was 927 nM. The GI50 [37] was 4220 nM, the GI50 [38] was 905 nM and the GI50 [39] was 1520 nM. It also gave a GI50 [40] of 1450 nM, a GI50 [41] of 4510 nM and a GI50 [42] of 1770 nM. For the same molecule, the GI50 [43] was > 550 nM, the GI50 [44] was 911 nM and the GI50 [45] was 2170 nM. For the same molecule, the GI50 [46] was 233 nM, the GI50 [47] was 1670 nM and the GI50 [48] was 1150 nM. For the same molecule, the GI50 [49] was 2030 nM, the GI50 [50] was 1800 nM and the GI50 [51] was 1800 nM. The GI50 [52] was 940 nM, the GI50 [53] was 1360 nM and the GI50 [54] was 423 nM. It also gave a GI50 [55] of 2350 nM and a GI50 [56] of 460 nM.
